Measured values reported in patent US20240034743A9, “TRICYCLIC COMPOUNDS AS EGFR INHIBITORS” (QILU PHARMACEUTICAL CO., LTD., priority 2020, published 2024).
Where two headings read alike, the source gives them in different places.

Legend:
A431 cells (EGFR WT) = assay: A431 cell proliferation inhibition assay (CellTiter-Glo); assay type: cell-based; conditions: Homo sapiens
Method: A431 Cell Proliferation Inhibition Assay
In the assay, the inhibition effect of the compounds on the proliferation of A431 cells was tested by adopting a CellTiter-Glo method, and the concentration IC50 of the compound for inhibiting half maximal growth of cells was obtained.
A431 cells, purchased from ATCC.
DMEM medium, fetal bovine serum (FBS), and Penicillin-Streptomycin, purchased from GIBCO.
(§1) Brigatinib, purchased from Selleck.
(§2) CellTiter-Glo reagent, purchased from Promega.
1) A431 cells were seeded in a 384-well plate at a density of 800 cells/well with 30 μL/well, and the plate was cultured in a cell incubator for 24 h (37° C., 5% CO2).
(§3) 2) Day 0: […] of gradiently-diluted compounds to be tested with a final concentration of DMSO of 0.1% was added to plate using Echo, and the plate was incubated in a cell incubator for 72 h (37° C., 5% CO2). […] of DMSO was added into each well in blank control group.
(§4) 3) Day 3: 30 μL Cell Titer-Glo reagent was added to each well, and the plate was in the dark under room temperature for 30 min.
(§5) 4) The chemiluminescent signal was detected by an Envision plate reader (PerkinElmer).
(§6) 5) Data analysis was performed using GraphPad Prism software to give the IC50 for compounds.

[1] = test system: Ba/F3_Del19/T790M/C797S cells; assay: Ba/F3_Del19/T790M/C797S cell proliferation inhibition assay (CellTiter-Glo); assay type: cell-based; conditions: Mus musculus
Method: Ba/F3_Del19/T790M/C797S Cell Proliferation Inhibition Assay
In the assay, the inhibition effect of the compounds on the proliferation of Ba/F3_Del19/T790M/C797S cells was tested by adopting a CellTiter-Glo method, and the concentration IC50 of the compound for inhibiting half maximal growth of cells was obtained.
Ba/F3_Del19/T790M/C797S, purchased from Kyinno Biotechnology Co., Ltd. 1640 medium, fetal bovine serum (FBS), Penicillin-Streptomyces, and GlutaMAX-I Supplement, purchased from GIBCO.
as §1, §2
1) Ba/F3_Del19/T790M/C797S cells were seeded in a 384-well plate at a density of 700 cells/well with 30 μL/well.
as §3, §4, §5
Data analysis was performed using GraphPad Prism 6 software to give the IC50 for compounds.

EGFR WT (wild type EGFR) = EGFR WT (wild type EGFR) (Homo sapiens (Human), UniProt P00533); assay: In vitro enzymatic TR-FRET (HTRF KinEASE-TK) kinase assay, EGFR WT; assay type: biochemical
Method: (I) In Vitro Enzymatic Experiment for EGFR WT and EGFR L858R/T790M/C797S
In the assay, the inhibition effect of the compound on the kinase activity of EGFR WT (wild type EGFR) and EGFR L858R/T790M/C797S was tested by adopting a time-resolved fluorescence resonance energy transfer (TR-FRET) method, and half maximal inhibitory concentration IC50 of the compound on the kinase activity of EGFR was obtained.
EGFR recombinase and EGFR L858R/T790M/C797S recombinase, purchased from Signalchem.
HTRF KinEASE-TK kit, purchased from Cisbio.
DTT, MnCl2, and MgCl2, purchased from Sigma.
ATP, purchased from Promega.
as §1
1) 1× working solution was prepared: 5 mM MgCl2; 1 mM DTT; 1 mM MnCl2 and 1× kinase buffer (in kit).
2) […] of gradiently-diluted compound was transferred to a 384-well plate using Echo 550 (Labcyte).
3) 5 μL of 2× EGFR WT or EGFR L858R/T790M/C797S recombinase solution was added to the 384-well plate, and the plate was incubated at room temperature for 10 min.
4) 5 μL of 2× TK-substrate-biotin substrate solution (containing ATP) was added to the 384-well plate, and the plate was incubated at room temperature for 40 min.
5) 5 μL of assay solution containing Sa-XL 665 HTRF and 5 μL of TK-antibody-Cryptatewas were added to the plate, and the plate was incubated at room temperature for 1 h.
6) The fluorescence signal values at 615 nm and 665 nm were measured for each well using an Envision microplate reader (PerkinElmer).
7) The ratio of fluorescence signal values at 665 nm and 615 nm was calculated for each well.
8) Data analysis was performed using GraphPad Prism software to give the IC50 for compounds.

[2] = test system: Ba/F3_L858R/T790M/C797S cells; assay: Ba/F3_L858R/T790M/C797S cell proliferation inhibition assay (CellTiter-Glo); assay type: cell-based; conditions: Mus musculus
Method: Ba/F3_L858R/T790M/C797S Cell Proliferation Inhibition Assay
In the assay, the inhibition effect of the compounds on the proliferation of Ba/F3_L858R/T790M/C797S cells was tested by adopting a CellTiter-Glo method, and the concentration IC50 of the compound for inhibiting half maximal growth of cells was obtained.
Ba/F3_L858R/T790M/C797S cells were constructed by Pharmaron Beijing Co., Ltd.
1640 medium, fetal bovine serum (FBS), Penicillin-Streptomyces, and GlutaMAX-I Supplement, purchased from GIBCO.
as §1, §2
1) Ba/F3_L858R/T790M/C797S cells were seeded in a 384-well plate at a density of 700 cells/well with 30 μL/well.
as §3, §4, §5, §6

[3] = A-431, 72 h, read-out: A431 EGFR WT IC50(nM)
[4] = BaF3, 72 h, read-out: Ba/F3 (Del19/T790M/C797S) IC50(nM)
[5] = kinase activity, TR-FRET, read-out: EGFR (WT) IC50
[6] = BaF3, 72 h, read-out: Ba/F3 (L858R/T790M/C797S) IC50(nM)
[7] = A-431, cell proliferation, 72 h, CellTiter-Glo, read-out: A431 EGFR WT IC50
[8] = BaF3, cell proliferation, 72 h, CellTiter-Glo, read-out: Ba/F3 (Del19/T790M/C797S) IC50
[9] = BaF3, cell proliferation, 72 h, CellTiter-Glo, read-out: Ba/F3 (L858R/T790M/C797S) IC50

EGFR WT (wild type EGFR), sequence (P00533 25-1210): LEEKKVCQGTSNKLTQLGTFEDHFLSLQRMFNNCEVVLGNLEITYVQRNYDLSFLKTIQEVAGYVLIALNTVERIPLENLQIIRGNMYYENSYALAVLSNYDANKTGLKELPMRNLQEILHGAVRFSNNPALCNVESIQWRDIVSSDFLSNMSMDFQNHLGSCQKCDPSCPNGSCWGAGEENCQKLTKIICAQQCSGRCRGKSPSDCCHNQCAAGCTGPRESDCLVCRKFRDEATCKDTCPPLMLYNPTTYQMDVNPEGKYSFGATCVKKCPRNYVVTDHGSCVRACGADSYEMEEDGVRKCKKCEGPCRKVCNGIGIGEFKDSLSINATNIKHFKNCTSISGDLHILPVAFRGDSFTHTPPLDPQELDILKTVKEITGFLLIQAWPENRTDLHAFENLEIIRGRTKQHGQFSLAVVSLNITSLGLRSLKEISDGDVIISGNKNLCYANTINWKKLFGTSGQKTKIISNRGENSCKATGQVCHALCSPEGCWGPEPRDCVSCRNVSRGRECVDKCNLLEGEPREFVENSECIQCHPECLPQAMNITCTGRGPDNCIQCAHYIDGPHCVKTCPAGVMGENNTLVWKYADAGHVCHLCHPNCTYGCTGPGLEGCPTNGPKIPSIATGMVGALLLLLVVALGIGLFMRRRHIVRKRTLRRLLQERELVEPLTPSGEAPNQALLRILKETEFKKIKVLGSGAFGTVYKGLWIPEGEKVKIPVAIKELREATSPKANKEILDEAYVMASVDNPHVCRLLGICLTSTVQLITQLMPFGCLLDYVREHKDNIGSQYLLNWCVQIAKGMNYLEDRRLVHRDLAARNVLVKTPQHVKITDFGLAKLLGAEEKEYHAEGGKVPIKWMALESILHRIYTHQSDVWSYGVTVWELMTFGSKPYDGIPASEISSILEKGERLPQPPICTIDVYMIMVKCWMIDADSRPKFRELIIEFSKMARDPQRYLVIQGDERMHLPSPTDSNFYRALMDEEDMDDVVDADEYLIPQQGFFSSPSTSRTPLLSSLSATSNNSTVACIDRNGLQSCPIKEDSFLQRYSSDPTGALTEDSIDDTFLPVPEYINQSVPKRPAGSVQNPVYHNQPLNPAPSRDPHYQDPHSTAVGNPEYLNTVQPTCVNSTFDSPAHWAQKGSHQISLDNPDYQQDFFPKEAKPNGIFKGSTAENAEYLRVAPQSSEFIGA

Row | IC50 (EGFR WT (wild type EGFR); [5]) | IC50 (A431 cells (EGFR WT); [7]) | IC50 [1, 8] | IC50 [2, 9] | SMILES | IC50 (A431 cells (EGFR WT); [3]) | IC50 [1, 4] | IC50 [2, 6] | IC50 (EGFR WT (wild type EGFR))
1 | 1 to 10 nM | 50 to 100 nM | < 10 nM | < 10 nM | COc1cc2c(cc1Nc1ncc(Br)c(Nc3ccc4nccnc4c3P(C)(C)=O)n1)-c1cnn(C)c1CCO2 [Compound 33] |  |  |  | 
2 | 1 to 10 nM | 100 to 1000 nM | < 10 nM | < 10 nM | COc1cc2c(cc1Nc1ncc(Br)c(Nc3ccc4nccnc4c3P(C)(C)=O)n1)-c1cnn(C)c1CN(C)C2 [Compound 11] |  |  |  | 
3 | 1 to 10 nM | > 1000 nM | 100 to 1000 nM | 100 to 1000 nM | COc1cc2c(cc1Nc1ncc(Br)c(Nc3ccnc(C)c3NS(C)(=O)=O)n1)-c1cnn(C)c1CCN2C [Compound 136] |  |  |  | 
4 | 1 to 10 nM | 100 to 1000 nM | < 10 nM | < 10 nM | COc1cc2c(cc1Nc1ncc(Br)c(Nc3ccccc3P(C)(C)=O)n1)-c1scnc1CCN2C [Compound 42] |  |  |  | 
5 | 1 to 10 nM | 50 to 100 nM | < 10 nM | < 10 nM | COc1cc2c(cc1Nc1ncc(Br)c(Nc3ccc4nccnc4c3P(C)(C)=O)n1)-c1cn(C)nc1CCN2C [Compound 8] |  |  |  | 
6 | 1 to 10 nM | 100 to 1000 nM | 10 to 50 nM | 50 to 100 nM | COc1cc2c(cc1Nc1ncc(Br)c(Nc3ccccc3P(C)(C)=O)n1)-c1cnn(C3CCN(C)CC3)c1CCN2C(C)C [Compound 75] |  |  |  | 
7 | 1 to 10 nM | 100 to 1000 nM | < 10 nM | < 10 nM | CCN1CCc2c(cnn2C)-c2cc(Nc3ncc(Br)c(Nc4ccccc4P(C)(C)=O)n3)c(OC)cc21 [Compound 20] |  |  |  | 
8 | 1 to 10 nM | 100 to 1000 nM | < 10 nM | < 10 nM | COc1cc2c(cc1Nc1nc(Nc3ccccc3P(C)(C)=O)c3cc[nH]c3n1)-c1cnn(C)c1CCN2C [Compound 36] |  |  |  | 
9 | 1 to 10 nM | 50 to 100 nM | < 10 nM | < 10 nM | COc1cc2c(cc1Nc1ncc(Br)c(Nc3ccccc3P(C)(C)=O)n1)-c1cnn(C)c1CCN2C [Compound 2] |  |  |  | 
10 | 10 to 50 nM | 100 to 1000 nM | < 10 nM | < 10 nM | COc1cc2c(cc1Nc1ncc(C(F)(F)F)c(Nc3ccccc3P(C)(C)=O)n1)-c1cnn(C)c1CCN2C [Compound 26] |  |  |  | 
11 |  |  |  |  | COc1cc2c(cc1Nc1ncc(Br)c(Nc3ccccc3P(C)(C)=S)n1)-c1cnn(C)c1CCN2C1CCN(C(C)C)CC1 [Compound 105] | 100 to 1000 nM | < 10 nM | 10 to 50 nM | 1 to 10 nM
12 | 1 to 10 nM | 100 to 1000 nM | < 10 nM | 10 to 50 nM | CCN1CCc2c(cnn2C)-c2cc(Nc3ncc(C)c(Nc4ccccc4P(C)(C)=O)n3)c(OC)cc21 [Compound 19] |  |  |  | 

Row | SMILES | IC50 (EGFR WT (wild type EGFR); [5]) | IC50 (A431 cells (EGFR WT); [7]) | IC50 [1, 8] | IC50 [2, 9] | IC50 (A431 cells (EGFR WT); [3]) | IC50 [1, 4] | IC50 [2, 6] | IC50 (EGFR WT (wild type EGFR))
13 | COc1cc2c(cc1Nc1ncc(Br)c(Nc3ccccc3P(C)(C)=O)n1)-c1cnn(C)c1CCN2 [Compound 28] | 1 to 10 nM |  |  |  | 100 to 1000 nM | < 10 nM | < 10 nM | 
14 | COc1cc2c(cc1Nc1ncc(Br)c(Nc3ccc4nccnc4c3P(C)(C)=O)n1)-c1cnn(C)c1CCN2 [Compound 16] | 1 to 10 nM |  |  |  | 50 to 100 nM | < 10 nM | < 10 nM | 
